Experimental data from ChEMBL document CHEMBL3046194, “Synthesis and antitumor activity of novel 4-aminoquinoline derivatives” (Med Chem Res, 2013).
Calls of active or inactive are those of the source. No cut-off for these calls is given here.

Experiments:
[1] = Antitumor activity against Homo sapiens (human) LN229 cells assessed as inhibition of cell viability after 72 hr by MTT assay; format: functional, cell-based; conditions: LN-229, 72 h
A549 = experiment: Antitumor activity against Homo sapiens (human) A549 cells assessed as inhibition of cell viability after 72 hr by MTT assay; format: functional, cell-based; conditions: A549, 72 h
HCT-116 [2] = experiment: Antitumor activity against Homo sapiens (human) HCT116 cells assessed as inhibition of cell viability after 72 hr by MTT assay; format: functional, cell-based; conditions: HCT-116, 72 h
DU-145 = experiment: Antitumor activity against Homo sapiens (human) DU145 cells assessed as inhibition of cell viability after 72 hr by MTT assay; format: functional, cell-based; conditions: DU-145, 72 h
HepG2 = experiment: Antitumor activity against Homo sapiens (human) HepG2 cells assessed as inhibition of cell viability after 72 hr by MTT assay; format: functional, cell-based; conditions: HepG2, 72 h
HCT-116 [3] = experiment: Decrease in VEGF protein expression in Homo sapiens (human) HCT116 cells at 2.5 to 10 uM after 48 hr by westerrn blot analysis; format: functional, cell-based
HEK293 = experiment: Cytotoxicity against Homo sapiens (human) HEK293 cells assessed as inhibition of cell viability after 72 hr by MTT assay; format: cell-based; conditions: HEK293, 72 h

Structure (SMILES)	IC50 [1]	IC50 (A549)	IC50 (HCT-116 [2])	IC50 (DU-145)	IC50 (HepG2)	inhibition (HCT-116 [3])	IC50 (HEK293)
COc1cc(OC)c2c(-n3ccnc3)cc(-c3ccccc3)nc2c1	55.3 µM	> 100 µM	42.4 µM	> 100 µM	58.6 µM		
COc1cc(OC)c2c(NCc3ccccc3)cc(-c3ccccc3)nc2c1	7.15 µM	12.8 µM	12 µM	10.1 µM	10.9 µM		
CCCNc1cc(-c2ccccc2)nc2cc(OC)cc(OC)c12	1.82 µM	13.1 µM	0.97 µM	9.77 µM	5.21 µM	Active	2 µM
COc1cc(OC)c2c(N3CCN(C)CC3)cc(-c3ccccc3)nc2c1	1.75 µM	> 100 µM	7.43 µM	16.4 µM	22.6 µM		3.66 µM
O=c1[nH]cc(F)c(=O)[nH]1 [FLUOROURACIL]		> 100 µM	1.93 µM	2.95 µM	19.2 µM		
CCCCNc1cc(-c2ccccc2)nc2cc(OC)cc(OC)c12	3.92 µM	19.6 µM	3.05 µM	4.63 µM	4.46 µM		3.23 µM
COc1cc(OC)c2c(N3CCOCC3)cc(-c3ccccc3)nc2c1	> 100 µM	> 100 µM	28.1 µM	> 100 µM	> 100 µM		> 100 µM
COc1cc(OC)c2c(N3CCCCC3)cc(-c3ccccc3)nc2c1	66 µM	> 100 µM	32 µM	> 100 µM	> 100 µM		68.2 µM
COc1cc(OC)c2c(Nc3ccccc3)cc(-c3ccccc3)nc2c1	5.9 µM	> 100 µM	4.28 µM	22.2 µM	36.4 µM		13.2 µM
COc1cc(OC)c2c(NC3CCCCC3)cc(-c3ccccc3)nc2c1	6.08 µM	6.59 µM	3.82 µM	5.47 µM	3.16 µM		
